Data from US7718641B2, “Pyrrolo [3,4-H] isoquinoline compounds and methods for modulating gated ion channels” (Aros Pharma ApS, priority 2005, dated 2010).

Target: T1, homomeric hASIC1a (Homo sapiens, UniProt P78348)
T1 construct: expressed in transfected cells; host or cells: Xenopus laevis oocytes (nuclear cDNA microinjection)
T1 sequence (P78348 1-528): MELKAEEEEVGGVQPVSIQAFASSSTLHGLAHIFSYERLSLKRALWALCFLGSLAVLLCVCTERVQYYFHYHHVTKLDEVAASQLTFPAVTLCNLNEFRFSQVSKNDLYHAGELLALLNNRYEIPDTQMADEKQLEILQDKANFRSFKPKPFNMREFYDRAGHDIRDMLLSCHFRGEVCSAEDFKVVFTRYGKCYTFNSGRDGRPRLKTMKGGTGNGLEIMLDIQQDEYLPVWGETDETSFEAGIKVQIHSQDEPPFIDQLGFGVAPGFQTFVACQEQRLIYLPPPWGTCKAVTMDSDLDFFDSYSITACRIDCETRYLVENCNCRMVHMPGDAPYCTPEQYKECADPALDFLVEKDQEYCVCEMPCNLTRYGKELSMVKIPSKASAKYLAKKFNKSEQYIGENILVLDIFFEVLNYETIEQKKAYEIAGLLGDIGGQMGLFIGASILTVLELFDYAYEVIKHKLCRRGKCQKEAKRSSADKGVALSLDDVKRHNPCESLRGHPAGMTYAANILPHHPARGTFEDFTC
Experiment: Two-electrode voltage clamp in Xenopus laevis oocytes expressing homomeric hASIC1a
Assay type: cell-based
Conditions: 30 μM, OpusExpress
Procedure: Two-electrode voltage clamp electrophysiological assays in Xenopus laevis oocytes expressing gated ion channels are performed as follows:
Oocytes are surgically removed from adult Xenopus laevis and treated for 2 h at room temperature with 1 mg/ml type I collagenase (Sigma) in Barth's solution under mild agitation. Selected oocytes at stage IV-V are defolliculated manually before nuclear microinjection of 2.5-5 ng of a suitable expression vector, such as pcDNA3, comprising the nucleotide sequence encoding a gated ion channel subunit protein. In such an experiment, the oocytes express homomultimeric proton-gated ion channels on their surface. In an alternate experiment, one, two, three or more vectors comprising the coding sequences for distinct gated ion channel subunits are co-injected in the oocyte nuclei. […] After 2-4 days of expression at 19° C. in Barth's solution containing […] gentamicin and 1.8 mM CaCl2, gated ion channels are activated by applying an acidic solution (pH <7) and currents are recorded in a two electrode voltage-clamp configuration, using an OC-725B amplifier (Warner Instruments). Currents are acquired and digitized at 500 Hz on an Apple Imac G3 computer with an A/D NB-MIO-16XL interface (National Instruments) and recorded traces are post-filtered at 100 Hz in Axograph (Axon Instruments) (Neher, E. and Sakmann, B. (1976) Nature 260:799-802). […]

SMILES: COc1ccc(F)cc1-c1cc2c(c3c1CCN(C)C3)NC(=O)/C2=N/O [Compound A, 5-(5-fluoro-2-methoxyphenyl)-6,7,8,9-tetrahydro-3-(hydroxyimino)-8-methyl-1H-pyrrolo[3,2-h]isoquinoline-2(3H)-one]
- effect on inward currents elicited by pH 6.5, homomeric hASIC1a: effectively modulates the activity
